Measured values as given in patent US20030073731A1, “Compositions and methods of the use thereof achiral analogues of CC-1065 and the duocarmycins” (priority 2000, published 2003).
Where two headings read alike, the source gives them in different places.

Tests used:
plasmid pBR322 DNA = assay: Taq polymerase stop assay; format: biochemical
MALME-3M = format: cell-based, human
OVCAR-4 = format: cell-based, human
DU-145 = format: cell-based, human
HT29 [1] = system: HT29
M14 [2] = system: M14
MDA-MB-231/ATCC [3] = system: MDA-MB-231/ATCC
A498 = assay: NCI in-vitro cytotoxicity screen, Renal Cancer panel; format: cell-based; details: Homo sapiens
Method: (§1) The compounds of this invention were also tested against the panel of 60 human cancer cell lines at the National Cancer Institute, Bethesda, Md. […] The cytotoxicity studies were conducted using a 48 hour exposure, and measuring the optical density of sulforhodamine B-derived color.

[4] = NCI in-vitro cytotoxicity screen, Breast Cancer panel; format: cell-based, human; details: Homo sapiens, read-out: LC50
Method: as §1

T-470 = assay: as above; format: cell-based, human; details: T-470
Method: as §1

[5] = system: human colon adenocarcinoma cell line, LS 174T; assay: cells; details: LS174T
Method: Cells were seeded in 96-well microtiter plates at densities of 1000 cells/well. The optimal seeding density was determined to ensure exponential growth in control wells throughout the experimental period and to obtain a linear relationship between absorbance at 492 nm and cell number when analyzed by the sulforhodamine B (SRB) assay (43). 24 hours after seeding the cells were incubated for 1 hour or continuously for 3 days with the drugs (concentration range 0.01 to 500 pM). The cells were washed once and then incubated in drug free medium for 6 days. At the end of the incubation cell growth was determined by the SRB assay, which quantifies viable cells by measuring their total cellular protein content. […] Similar studies were conducted against the growth of PC3 (human prostate cancer cells) and MCF-7 (human breast cancer cells).

[6] = system: panel of 60 human cancer cell lines; details: 48 hour exposure
EKVX = assay: cells; details: Homo sapiens
HOP-92 = assay: cells; details: Homo sapiens
NCI-H522 = assay: cells; details: Homo sapiens
HT29 [7] = assay: cells; details: Homo sapiens
SF-268 = assay: cells; details: Homo sapiens
SF-295 = assay: cells; details: Homo sapiens
SNB-19 = assay: cells; details: Homo sapiens
M14 [8] = assay: cells; details: Homo sapiens
SK-MEL-5 = assay: cells; details: Homo sapiens
UACC-257 = assay: cells; details: Homo sapiens
TK-10 = assay: cells; details: Homo sapiens
MCF7 = assay: cells; details: Homo sapiens
MDA-MB-231/ATCC [9] = assay: cells; details: Homo sapiens
MDA-N = assay: cells; details: Homo sapiens

## 4-(2-Chloroethyl)-3-[5-(5-benzofuran-2-carboxamido)indole-2-carboxamido]phenol [Compound 1]
Plasmid pBR322 DNA
  sequence selectivity compared with compound 27: stronger sequence selectivity than 27
MALME-3M
  GI50: 1840 nM
  TGI: 3.56E-06 Molar
OVCAR-4
  GI50: 2390 nM
  TGI: 5.06E-06 Molar
DU-145
  GI50: 1120 nM
  TGI: 6.16E-06 Molar
NCI-H226
  GI50: 4090 nM
  TGI: 1.62E-05 Molar
HT29 [1]
  GI50: 2290 nM
  TGI: 1.115E-05 Molar
M14 [2]
  GI50: 1490 nM
  TGI: 3.19E-06 Molar
OVCAR-3
  GI50: 2130 nM
  TGI: 4.69E-06 Molar
SK-OV-3
  GI50: 2930 nM
  TGI: 7.66E-06 Molar
PC-3
  GI50: 969 nM
  TGI: 3.99E-06 Molar
MDA-MB-231/ATCC [3]
  GI50: 2430 nM
  TGI: 7.10E-06 Molar
MDA-MB-231/ATCC [3]; Log10 Concentration (Molar) −4.0
  Percent Growth: −65%
MDA-MB-231/ATCC [3]; Log10 Concentration (Molar) −6.0
  Percent Growth: 92%
MDA-MB-231/ATCC [3]; Log10 Concentration (Molar) −7.0
  Percent Growth: 97%
MDA-MB-231/ATCC [3]; Log10 Concentration (Molar) −8.0
  Percent Growth: 94%

## COC(=O)c1[nH]c2c(O)cc(NC(=O)c3cc4cc(OC)c(OC)c(OC)c4[nH]3)c(CCCl)c2c1C(=O)OC [Compound 22, Dimethyl 4-(2-chloroethyl)-7-hydroxy-5-(5,6,7-trimethoxyindole-2-carboxamido)indole-2,3-dicarboxylate]
A498; A498
  GI50: 164 nM
A498; A498, read-out: LC50
  CC50: 20700 nM
[4]
  CC50: > 50000 nM
T-470; Homo sapiens
  GI50: 171 nM
T-470; Log10 Concentration −4.3
  Percent Growth: 14%
[5]
  IC50: 4 nM
[5]; 1 h
  IC50: 1860 nM
[6]
  cytotoxic activity in the NCI screen: activity in the micromolar range
EKVX
  GI50: 164 nM
EKVX; read-out: LC50
  CC50: 3250 nM
HOP-92; HOP-92
  GI50: 179 nM
HOP-92; HOP-92, read-out: LC50
  CC50: > 50000 nM
NCI-H522; NCI-H522
  GI50: 57.7 nM
NCI-H522; NCI-H522, read-out: LC50
  CC50: 373 nM
HT29 [7]; HT-29
  GI50: 68.1 nM
HT29 [7]; HT-29, read-out: LC50
  CC50: 2340 nM
SF-268; SF-268
  GI50: 13.8 nM
SF-268; SF-268, read-out: LC50
  CC50: 1170 nM
SF-295; SF-295
  GI50: 126 nM
SF-295; SF-295, read-out: LC50
  CC50: > 50000 nM
SNB-19; SNB-19
  GI50: 173 nM
SNB-19; SNB-19, read-out: LC50
  CC50: > 50000 nM
M14 [8]; M14
  GI50: 76.4 nM
M14 [8]; M14, read-out: LC50
  CC50: 368 nM
SK-MEL-5; SK-MEL-5
  GI50: 32.3 nM
SK-MEL-5; SK-MEL-5, read-out: LC50
  CC50: > 50000 nM
UACC-257; UACC-257
  GI50: 170 nM
UACC-257; UACC-257, read-out: LC50
  CC50: > 50000 nM
TK-10; TK-10
  GI50: 272 nM
TK-10; TK-10, read-out: LC50
  CC50: > 50000 nM
MCF7; MCF7
  GI50: 22.4 nM
MCF7; MCF7, read-out: LC50
  CC50: 47500 nM
MDA-MB-231/ATCC [9]; MDA-MB-231
  GI50: 171 nM
MDA-MB-231/ATCC [9]; MDA-MB-231, read-out: LC50
  CC50: > 50000 nM
MDA-N
  GI50: 150 nM
MDA-N; read-out: LC50
  CC50: > 50000 nM
